Measured values as given in US6531598B1, “Naphthostyrils” (Hoffmann-La Roche Inc., priority 2001, dated 2003).
Structures can show the parent of a compound that is named as a salt.

What was measured:
[1] = test system: MDA-MB435 breast carcinoma cell line; assay: Tetrazolium dye proliferation assay, MDA-MB435; assay type: cell-based; conditions: MTT, 5 days post addition of test compound, 2000 cells per well
Protocol: (§1) The cell lines used were MDA-MB435, a breast carcinoma dell line and RKO, a colon carcinoma cell line.
(§2) Teh estrogen receptor negative epithelial breast carcinoma line (MDA-MB435) was purchased from American Type Cell Culture Collection (ATCC; Rockville, Md.) and was grown in the medium recommended by ATCC. For analysis of the test compounds on growth of these cells, the cells were plated at 2000 cells per well in a 96-well tissue culture plate, and were incubated overnight at 37° C. with 5% CO2. The next day, the test compounds were dissolved in 100% dimethyl sulfoxide (DMSO) to yield a 10 mM stock solution. […] The compounds were then serially diluted in medium with 1.2% DMSO. One-fourth final volume of the diluted compounds was transferred to 96 well plates. Test compounds were assayed in duplicate. DMSO was added to a row of “control cells” such that the final concentration of DMSO in each well was 0.3%. Wells to which no cells were added served as the “blank.” Wells to which no inhibitor was added served as “no inhibitor control”. The plates were returned to the incubator, and 5 days post addition of test compound, were analyzed as described below.
(§3) 3-(4,5-Dimethylthiazole-2-yl)-2,5-diphenyl-2H-tetrazolium bromide (thiazolyl blue; MTT) was added to each well to yield a final concentration of 1 mglmL. The plates were then incubated at 37° C. for 3 hours. The plates were centrifuged at 1000 rpm for 5 minutes prior to aspiration of the MTT-containing medium. The MTT-containing medium was then removed and 100 μL 100% EtOH was added to each well to dissolve the resulting formazan metabolite. To ensure complete dissolution, plates were shaken for 15 minutes at room temperature. Absorbencies were read in a microliter plate reader (Molecular Dynamics) at a wavelength of 570 nm with a 650 nm reference. Percent inhibition was calculated by subtracting the absorbency of the blank (no cell) wells from all wells, then subtracting the division of the average absorbency of each test duplicate by the average of the controls from 1.00. Inhibitory concentrations (IC50) were determined from the linear regression of a plot of the logarithm of the concentration versus the percent inhibition.

[2] = test system: RKO colon carcinoma cell line; assay: Tetrazolium dye proliferation assay, RKO; assay type: cell-based; conditions: MTT, 5 days post addition of test compound, 500 cell per well
Protocol: as §1, §2, §3
The colon carcinoma line RKO was also obtained from the ATCC and was tested according to the same protocol provided above except that the cell line RKO was plated at 500 cell per well.

human Cyclin E/CDK2 = biological target: T1, human Cyclin E/CDK2 (Homo sapiens, UniProt P24941); assay: CDK2 FlashPlate Assay; assay type: biochemical; conditions: inhibition of Rb phosphorylation, 33P-ATP, 25 minutes at room temperature
T1 construct: made in house; host or cells: insect cells
Protocol: To determine inhibition of CDK2 activity, purified recombinant retinoblastoma (Rb) protein was coated on 96 well FlashPlates (New England Nuclear, Boston, Mass.). […] Recombinant active human Cyclin E/CDK2 complexes were partially purified from extracts of insect cells. […] Plates were incubated for 25 minutes at room temperature with shaking, then washed and counted in the Topcount scintillation counter (Packard Instrument Co., Downers Grove, Ill.). Dilutions of test compounds were tested in duplicate in each assay. The percent inhibition of Rb phosphorylation, which is a measure of the inhibition of CDK2 activity, was determined according to the following formula: [formula]
where “test compound” refers to the average counts per minute of the test duplicates, “nonspecific” refers to the average counts per minute when no Cyclin E/CDK2 was added, and “total” refers to the average counts per minute when no compound was added.

[3] = Homo sapiens, MDA-MB-435, 120 h

| Structure (SMILES) | IC50 [1, 3] [µM] | IC50 ([2]; Colon carcinoma cell, 120 h) [µM] | IC50 (human Cyclin E/CDK2) [µM] | IC50 [1] [µM] | IC50 [2] [µM] |
| --- | --- | --- | --- | --- | --- |
| NCCOc1cc(-c2ccc[nH]2)c2c3c(ccc(F)c13)NC2=O [Example 19, 5-(2-Amino-ethoxy)-6-fluoro-3-(1H-pyrrol-2-yl)-1H-benzo[cd]indol-2-one] | ≤ 10 | ≤ 10 | – | – | – |
| NCC[S+]([O-])c1cc(-c2ccc[nH]2)c2c3c(ccc(F)c13)NC2=O (centres unmarked) [Example 42, 5-(2-Amino-ethanesulfinyl)-6-fluoro-3-(1H-pyrrol-2-yl)-1H-benzo[cd]indol-2-one] | ≤ 10 | ≤ 10 | – | – | – |
| O=C1Nc2ccc(F)c3c(N4CCCC(O)C4)cc(-c4ccc[nH]4)c1c23 (centres unmarked) [Example 35, 6-Fluoro-5-(3-hydroxy-piperidin-1-yl)-3-(1H-pyrrol-2-yl)-1H-benzo[cd]indol-2-one] | ≤ 10 | ≤ 10 | – | – | – |
| O=C1Nc2ccc(F)c3c(N4CCCC(CO)C4)cc(-c4ccc[nH]4)c1c23 (centres unmarked) [Example 34, 6-Fluoro-5-(3-hydroxymethyl-piperidin-1-yl)-3-(1H-pyrrol-2-yl)-1H-benzo[cd]indol-2one] | ≤ 10 | ≤ 10 | – | – | – |
| NCC[S+]([O-])c1cc(-c2ccc[nH]2)c2c3c(ccc(F)c13)NC2=O (centres unmarked) [Example 43, 5-(2-Amino-ethanesulfinyl)-6-fluoro-3-(1H-pyrrol-2-yl)-1H-benzo[cd]indol-2-one hydrochloride salt] | – | – | – | ≤ 10 | ≤ 10 |
| CC(C)(N)CNc1cc(-c2ccc[nH]2)c2c3c(ccc(F)c13)NC2=O [Example 22, 5-(2-Amino-2-methyl-propylamino)-6-fluoro-3-(1H-pyrrol-2-yl)-1H-benzo[cd]indol-2-one] | ≤ 10 | ≤ 10 | ≤ 10 | – | – |
| O=C1Nc2ccc(F)c3c(N4CCNCC4)cc(-c4ccc[nH]4)c1c23 [Example 24, 6-Fluoro-5-piperazin-1-yl-3-(1H-pyrrol-2-yl)-1H-benzo[cd]indol-2-one acetic acid salt] | ≤ 10 | ≤ 10 | ≤ 10 | – | – |
| O=C1Nc2ccc(F)c3ccc(-c4ccc[nH]4)c1c23 [Example 7, 6-Fluoro-3-(1H-pyrrol-2-yl)-1H-benzo[cd]indol-2-one] | ≤ 10 | ≤ 10 | ≤ 10 | – | – |
| O=C1Nc2ccc(F)c3c([S+]([O-])CCO)cc(-c4ccc[nH]4)c1c23 (centres unmarked) [Example 37, 6-Fluoro-5-(2-hydroxy-ethanesulfinyl)-3-(1H-pyrrol-2-yl)-1H-benzo[cd]indol-2-one] | – | ≤ 10 | – | – | – |
| O=C1Nc2ccc(F)c3c(S(=O)(=O)CCO)cc(-c4ccc[nH]4)c1c23 [Example 38, 6-Fluoro-5-(2-hydroxy-ethanesulfonyl)-3-(1H-pyrrol-2-yl)-1H-benzo[cd]indol-2-one] | ≤ 10 | ≤ 10 | ≤ 10 | – | – |
| NCCS(=O)(=O)c1cc(-c2ccc[nH]2)c2c3c(ccc(F)c13)NC2=O [Example 44, 5-(2-Amino-ethanesulfonyl)-6-fluoro-3-(1H-pyrrol-2-yl)-1H-benzo[cd]indol-2-one] | ≤ 10 | ≤ 10 | ≤ 10 | – | – |
| O=C1Nc2ccc(F)c3c(OCCCO)cc(-c4ccc[nH]4)c1c23 [Example 17, 6-Fluoro-5-(3-hydroxy-propoxy)-3-(1H-pyrrol-2-yl)-1H-benzo[cd]indol-2-one] | – | – | ≤ 10 | – | – |
| O=C1Nc2ccc(F)c3c(OCCO)cc(-c4ccc[nH]4)c1c23 [Example 16, 6-Fluoro-5-(2-hydroxyethoxy)-3-(1H-pyrrol-2-yl)-1H-benzo[cd]indol-2-one] | ≤ 10 | ≤ 10 | ≤ 10 | – | – |
| CC(=O)NCCNc1cc(-c2ccc[nH]2)c2c3c(ccc(F)c13)NC2=O [Example 29, N-[2-[6-Fluoro-2oxo-3-(1H-pyrrol-2-yl)-1,2-dihydro-benzo[cd]indol-5-ylamino]-ethyl]-acetamide] | – | – | ≤ 10 | – | – |

The remaining lines, values ahead:

| IC50 [1, 3] [µM] | IC50 ([2]; Colon carcinoma cell, 120 h) [µM] | IC50 (human Cyclin E/CDK2) [µM] | IC50 [1] [µM] | IC50 [2] [µM] | Structure (SMILES) |
| --- | --- | --- | --- | --- | --- |
| ≤ 10 | ≤ 10 | ≤ 10 | – | – | O=C1Nc2ccc(F)c3c(NCCO)cc(-c4ccc[nH]4)c1c23 [Example 15, 6-Fluoro-5-(2-hydroxy-ethylamino)-3-(1H-pyrrol-2-yl)-1H-benzo[cd]indol-2-one] |
| ≤ 10 | ≤ 10 | ≤ 10 | – | – | NCCCNc1cc(-c2ccc[nH]2)c2c3c(ccc(F)c13)NC2=O [Example 21, 5-(3-Amino-propylamino)-6-fluoro-3-(1H-pyrrol-2-yl)-1H-benzo[cd]indol-2-one acetic acid salt] |
| ≤ 10 | ≤ 10 | ≤ 10 | – | – | O=C1Nc2ccc(F)c3c(N4CCC(O)CC4)cc(-c4ccc[nH]4)c1c23 [Example 33, 6-Fluoro-5-(4-hydroxy-piperidin-1-yl)-3-(1H-pyrrol-2-yl)-1H-benzo[cd]indol-2-one] |
| – | – | ≤ 10 | – | – | CCC(C)c1cc(-c2ccc[nH]2)c2c3c(ccc(F)c13)NC2=O (racemic) [Example 26, (rac)-5-sec-Butyl-6-fluoro-3-(1H-pyrrol-2-yl)-1H-benzo[cd]indol-2-one] |
| ≤ 10 | ≤ 10 | ≤ 10 | – | – | O=C1Nc2ccc(F)c3c(N4CC[C@@H](O)C4)cc(-c4ccc[nH]4)c1c23 [Example 32] |
| ≤ 10 | ≤ 10 | ≤ 10 | – | – | O=C1Nc2ccc(F)c3c2C1=C(c1ccc[nH]1)CC3 [Example 6, 6-fluoro-3-(1H-pyrrol-2-yl)-4,5-dihydro-1H-benzo[cd]indol-2-one] |
| – | – | ≤ 10 | – | – | CCc1cc(-c2ccc[nH]2)c2c3c(ccc(F)c13)NC2=O [Example 27, 5-Ethyl-6-fluoro-3-(1H-pyrrol-2-yl)-1H-benzo[cd]indol-2-one] |
| ≤ 10 | ≤ 10 | ≤ 10 | – | – | NCCSc1cc(-c2ccc[nH]2)c2c3c(ccc(F)c13)NC2=O [Example 40, 5-(2-Amino-ethylsulfanyl)-6-fluoro-3-(1H-pyrrol-2-yl)-1H-benzo[cd]indol-2-one] |
| ≤ 10 | ≤ 10 | ≤ 10 | – | – | O=C1Nc2ccc(F)c3c(N4CCOCC4)cc(-c4ccc[nH]4)c1c23 [Example 23, 6-Fluoro-5-morpholin-4-yl-3-(1H-pyrrol-2-yl)-1H-benzo[cd]indol-2-one] |
| – | – | ≤ 10 | – | – | CCN(CC)CCNc1cc(-c2ccc[nH]2)c2c3c(ccc(F)c13)NC2=O [Example 31, 5-(2-Diethylamino-ethylamino)-6-fluoro-3-(1H-pyrrol-2-yl)-1H-benzo[cd]indol-2-one] |
| ≤ 10 | ≤ 10 | ≤ 10 | – | – | Cc1c[nH]c(-c2cc(SCCN)c3c(F)ccc4c3c2C(=O)N4)c1C [Example 50, 5-(2-Amino-ethylsulfanyl)-6-fluoro-3-(3,4-dimethyl-1H-pyrrol-2-yl)-1H-benzo[cd]indol-2-one trifluoroacetic acid salt] |
| – | – | ≤ 10 | – | – | Cc1cc(-c2ccc[nH]2)c2c3c(ccc(F)c13)NC2=O [Example 25, 6-Fluoro-5-methyl-3-(1H-pyrrol-2-yl)-1H-benzo[cd]indol-2-one] |
| – | – | ≤ 10 | – | – | O=C1Nc2ccc(F)c3c(N4CCNC4=O)cc(-c4ccc[nH]4)c1c23 [Example 28, 6-Fluoro-5-(2-oxo-imidazolidin-1-yl)-3-(1H-pyrrol-2-yl)-1H-benzo[cd]indol-2-one] |
| ≤ 10 | ≤ 10 | ≤ 10 | – | – | O=C1Nc2ccc(F)c3c(SCCO)cc(-c4ccc[nH]4)c1c23 [Example 36, 6-Fluoro-5-(2-hydroxyethylsulfanyl)-3-(1H-pyrrol-2-yl)-1H-benzo[cd]indol-2-one] |
| – | – | ≤ 10 | – | – | CCOc1cc(-c2ccc[nH]2)c2c3c(ccc(F)c13)NC2=O [Example 14, 5-Ethoxy-6-fluoro-3-(1H-pyrrol-2-yl)-1H-benzo[cd]indol-2-one] |
| – | – | ≤ 10 | – | – | NCCOc1cc(-c2ccc[nH]2)c2c3c(ccc(F)c13)NC2=O [Example 20, 5-(2-Amino-ethoxy)-6-fluoro-3-(1H-pyrrol-2-yl)-1H-benzo[cd]indol-2-one methanesulfonic acid salt] |
